Patent publication US11103493B2, “Substituted pyridinyl compounds as indoleamine 2,3-dioxygenase (IDO) inhibitors” (Merck Sharp & Dohme Corp., priority 2017, dated 2021)

Assays:
[1] = target: T1, IDO1 (Homo sapiens, UniProt P14902); assay: IDO1 Cellular Assay in HeLa Cells Stimulated with IFNγ; type: cell-based; details: IFNγ 100 ng/mL, 300 uM L-tryptophan, about 48 hours incubation, fluorescence readout, read-out: IDO1 HeLa Cell Assay, IC50
Procedure: IDO1 Cellular Assay in HeLa Cells Stimulated with IFNγ
HeLa cells were cultured in complete HeLa culture medium (90% EMEM, 10% heat-inactivated fetal bovine serum) and expanded to about 1×10^9 cells. The cells were then collected and frozen down at 1×10^7 cells/vial in 1 mL frozen medium (90% complete HeLa culture medium, 10% DMSO).
Compounds to be tested were serially diluted in ten 3-fold steps in DMSO starting from 10 mM DMSO stocks in Echo low volume plate(s).
Frozen HeLa cells were thawed and transferred into HeLa assay medium (99% complete HeLa culture medium, 1% Pen/Strep) with 20 mL medium/vial of cells. The cells were spun down at 250 g in a table top centrifuge for 5 min and suspended in same volume of HeLa assay medium. The cells were then counted and adjusted to a density of 2×10^5 cells/mL in HeLa assay medium. Sterile L-tryptophan were added to the cells with final concentration of 300 uM L-tryptophan. A small aliquot (2 mL/plate) of HeLa cells were set aside and were not treated with IFNγ, to serve as the Max-E control.
HeLa cells with and without IFNγ were dispensed to the respective wells of 384-well assay plates containing the compounds. The plates were incubated for about 48 hours at a 37° C., 5% CO2 incubator. Afterwards, 12 μL of 0.5 M methyl isonipecotate in dimethyl sulfoxide were added into each well and the plates were sealed and incubated at 37° C. without CO2 overnight. The plates were centrifuged for 1 min at 200×g. The resulting fluorescence was measured in a Spectramax plate reader (Molecular Devices) with a 400 nm excitation filter and a 510 nm emission filter.
Potencies were calculated by […] least squares fit to the four parameter logistic IC50 equation.

[2] = target: T1, IDO1; assay: IDO1 Human Whole Blood Assay; type: cell-based; details: LPS and IFNγ 100 ng/mL, 18 h, kynurenine by LC/MS/MS
Procedure: IDO1 Human Whole Blood Assay
Compounds to be tested were serially diluted in ten 3-fold steps in DMSO starting from 10 mM. 3 μL of compound dilutions or DMSO alone were then dispensed from the dilution plate into a polypropylene 96-well assay plate containing 97 μL of RPMI medium using an Echo 555 acoustic liquid handler (Labcyte). LPS and IFNγ was prepared in RPMI medium to a 10× of final conc. (1000 ng/mL), final concentration is 100 ng/mL.
Human whole blood was drawn in sodium heparin coated tubes from healthy internal donors. 240 μL of blood was transferred to each of the wells of a v-bottom 96 well plate. 30 μL of compound was transferred from intermediate dilution plate, and incubated for 15 min. 30 μL from stimulants was then transferred to blood and mixed thoroughly. Plate was covered with breathable membrane and incubated at 37° C. for overnight (18 h).
On day 2, isotope labeled standard solutions of kunurenine and tryptophan was made in water at 10× concentration and 30 μL was added to the blood at […] concentration. The assay plates were centrifuged at 300×G for 10 min with no brake to separate plasma from red blood cells. 60 μL of plasma samples was removed without disturbing red blood cells. Plasma was diluted with RPMI in 1:1 ratio and proteins were precipitated out with two volumes of Acetonitrile. The plates were centrifuged at 4000×G for 60 min. 20 μL of supernatant was carefully transferred to a 384 well plate containing 40 μL of 0.1% formic acid in water and analyzed by LC/MS/MS.
LC/MS/MS analyses were performed using Thermo Fisher's LX4-TSQ Quantum Ultra system. This system consists of four Agilent binary high-performance liquid chromatography (HPLC) pumps and a TSQ Quantum Ultra triple quadrupole MS/MS instrument. For each sample, 5 μL were injected onto an Atlantis T3 column (2.1 mm×150 mm, 3 μm particle size) from Waters. The mobile phase gradient pumped at 0.8 mL/min was used to elute the analytes from the column at 25° C. The elution started at 0% B increasing linearly to 25% B at 6.5 min, holding at 25% for 1 min, re-equilibrating to 10 min. Mobile phase A consisted of 0.1% formic acid in water. Mobile phase B consisted of 0.1% of formic acid in acetonitrile. Data was acquired in positive mode using a HESI interface. The operational parameters for the TSQ Quantum Ultra instrument were a spray voltage of 4000 V, capillary temperature of 380° C., vaporizer temperature 400° C., shealth gas 60 arbitrary units, Aux gas 20 arbitrary units, tube lens 85 and collision gas 1.2 mTorr. SRM chromatograms of kynurenine (QI: 209.2>Q3:94.0) and internal standard (QI: 215.3>Q3:98.2) were collected for 90 sec. The peak area was integrated by Xcalibur Quan software. The ratios between the kynurenine generated in the reaction and 2D6-Kynurenine spiked-in internal standard were used to generate percentage inhibition and IC50 values. Compounds were titrated and IC50's were calculated by 4 parameter sigmoidal curve fitting formula.

T1 sequence (P14902 whole entry): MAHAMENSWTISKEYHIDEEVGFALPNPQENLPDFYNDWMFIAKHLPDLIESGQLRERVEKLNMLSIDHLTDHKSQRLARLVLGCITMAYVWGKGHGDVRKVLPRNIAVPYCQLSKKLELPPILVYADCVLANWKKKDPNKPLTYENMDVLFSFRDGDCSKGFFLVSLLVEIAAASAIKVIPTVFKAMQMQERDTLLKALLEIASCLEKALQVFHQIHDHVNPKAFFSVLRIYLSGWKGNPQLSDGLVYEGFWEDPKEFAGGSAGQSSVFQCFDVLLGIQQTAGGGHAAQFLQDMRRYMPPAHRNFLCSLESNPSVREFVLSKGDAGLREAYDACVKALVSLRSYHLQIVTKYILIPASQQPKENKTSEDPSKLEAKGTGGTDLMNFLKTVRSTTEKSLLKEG

| IC50 [1] [nM] | IC50 [2] [nM] | SMILES |
| --- | --- | --- |
| 12.5 | 864 | N#Cc1cccc(C(=O)Nc2ccc(C3(c4nc5cc(C#N)ccc5[nH]4)CCC3)cn2)c1 [Ex. 5, 3-Cyano-N-(5-(1-(5-cyano-1H-benzo[d]imidazol-2-yl)cyclobutyl)pyridin-2-yl)benzamide] |
| 13.6 | 387 | N#Cc1cnc2nc(C3(c4ccc(NC(=O)c5cccc(Cl)c5)nc4)CCC3)[nH]c2c1 [Ex. 2, 3-Chloro-N-(5-(1-(6-cyano-1H-imidazo[4,5-b]pyridin-2-yl)cyclobutyl)pyridin-2-yl)benzamide] |
| 7.77 | 889 | O=C(Nc1ccc(C2(c3nc4cc(F)c(F)cc4[nH]3)CCC2)cn1)c1cccc(Cl)c1 [Ex. 16, 3-chloro-N-{5-[1-(5,6-difluoro-1H-benzimidazol-2-yl)cyclobutyl]pyridin-2-yl}benzamide] |
| 5.1 | 504 | Cc1cc(Cl)cc2nc(C3(c4ccc(NC(=O)c5cccc(Cl)c5)nc4)CCC3)[nH]c12 [Ex. 9, 3-chloro-N-{5-[1-(5-chloro-7-methyl-1H-benzimidazol-2-yl)cyclobutyl]pyridin-2-yl}benzamide] |
| 23.5 | 2290 | N#Cc1cccc(C(=O)Nc2ccc(C3(c4nc5cc(C(F)(F)F)cnc5[nH]4)CCC3)cn2)c1 [Ex. 28, 3-cyano-N-(5-{1-[6-(trifluoromethyl)-3H-imidazo[4,5-b]pyridin-2-yl]cyclobutyl}pyridin-2-yl)benzamide] |
| 2.18 | 220 | N#Cc1cccc(C(=O)Nc2ccc(C3(c4nc5cccc(C(=O)N6CCCC6)c5[nH]4)CCC3)cn2)c1 [Ex. 38, 3-cyano-N-(5-{1-[7-(pyrrolidine-1-carbonyl)-1H-benzimidazol-2-yl]cyclobutyl}pyridin-2-yl)benzamide] |
| 24.8 | 3290 | N#Cc1cccc(C(=O)Nc2ccc(C3(c4nc5cccc(CCO)c5[nH]4)CCC3)cn2)c1 [Ex. 34, 3-Cyano-N-(5-(1-(7-(2-hydroxyethyl)-1H-benzo[d]imidazol-2-yl)cyclobutyl)pyridin-2-yl)benzamide] |
| 7.21 | 691 | O=C(Nc1ccc(C2(c3nc4cccc(F)c4[nH]3)CCC2)cn1)c1cccc(Cl)c1 [Ex. 25, 3-chloro-N-{5-[1-(7-fluoro-1H-benzimidazol-2-yl)cyclobutyl]pyridin-2-yl}benzamide] |
| 5.38 | 58.2 | N#Cc1cccc(C(=O)Nc2ccc(C3(c4nc5cccc(C(=O)N6CCC(O)CC6)c5[nH]4)CCC3)cn2)c1 [Ex. 37, 3-Cyano-N-(5-(1-(7-(4-hydroxypiperidine-1-carbonyl)-1H-benzo[d]imidazol-2-yl)cyclobutyl)pyridin-2-yl)benzamide] |
| 6.58 | 312 | N#Cc1cccc(C(=O)Nc2ccc(C3(c4nc5cc(Cl)ccc5[nH]4)CCC3)cn2)c1 [Ex. 30, N-(5-[1-(5-chloro-1H-benzimidazol-2-yl)cyclobutyl]pyridin-2-yl}-3-cyanobenzamide] |
| 5.23 | 501 | Cc1ccc2nc(C3(c4ccc(NC(=O)c5cccc(Cl)c5)nc4)CCC3)[nH]c2c1C [Ex. 10, 3-chloro-N-{5-[1-(6,7-dimethyl-1H-benzimidazol-2-yl)cyclobutyl]pyridin-2-yl}benzamide] |

The remaining lines, values behind:

| SMILES | IC50 [1] [nM] | IC50 [2] [nM] |
| --- | --- | --- |
| O=C(Nc1ccc(C2(c3nc4cccc(CCCO)c4[nH]3)CCC2)cn1)c1cccc(Cl)c1 [Ex. 32, 3-Chloro-N-(5-(1-(7-(3-hydroxypropyl)-1H-benzo[d]imidazol-2-yl)cyclobutyl)pyridin-2-yl)benzamide] | 5.4 | 446 |
| O=C(Nc1ccc(C2(c3nc4ncc(Br)cc4[nH]3)CCC2)cn1)c1cccc(Cl)c1 [Ex. 1, N-(5-(1-(6-bromo-1H-imidazo[4,5-b]pyridin-2-yl)cyclobutyl)pyridin-2-yl)-3-chlorobenzamide] | 10.1 | 159 |
| Cc1ccc2nc(C3(c4ccc(NC(=O)c5cccc(Cl)c5)nc4)CCC3)[nH]c2c1 [Ex. 13, 3-chloro-N-{5-[1-(6-methyl-1H-benzimidazol-2-yl)cyclobutyl]pyridin-2-yl}benzamide] | 2.79 | 125 |
| N#Cc1cccc(C(=O)Nc2ccc(C3(c4nc5ncc(C(F)(F)F)cc5[nH]4)CCC3)nc2)c1 [Ex. 45, 3-Cyano-N-(6-(1-(6-(trifluoromethyl)-1H-imidazo[4,5-b]pyridin-2-yl)cyclobutyl)pyridin-3-yl)benzamide] | 4.98 | 5780 |
| O=C(Nc1ccc(C2(c3nc4ccc(OC(F)F)cc4[nH]3)CCC2)cn1)c1cccc(Cl)c1 [Ex. 23, 3-chloro-N-(5-{1-[6-(difluoromethoxy)-1H-benzimidazol-2-yl]cyclobutyl}pyridin-2-yl)benzamide] | 7.67 | 1070 |
| O=C(Nc1ccc(C2(c3nc4ncc(C(F)(F)F)cc4[nH]3)CCC2)cn1)c1cccc(Cl)c1 [Ex. 7, 3-chloro-N-(5-{1-[6-(trifluoromethyl)-1H-imidazo[4,5-b]pyridin-2-yl]cyclobutyl}pyridin-2-yl)benzamide] | 5.66 | 273 |
| O=C(Nc1ccc(C2(c3nc4ccccc4[nH]3)CCC2)cn1)c1cccc(Cl)c1 [Ex. 3, N-(5-(1-(1H-benzo[d]imidazol-2-yl)cyclobutyl)pyridin-2-yl)-3-chlorobenzamide] | 6.87 | 429 |
| O=C(Nc1ccc(C2(c3nc4ccc(Cl)cc4[nH]3)CCC2)cn1)c1cccc(Cl)c1 [Ex. 21, 3-chloro-N-{5-[1-(6-chloro-1H-benzimidazol-2-yl)cyclobutyl]pyridin-2-yl}benzamide] | 1.89 | 80.9 |
| Cc1cc(C)c2[nH]c(C3(c4ccc(NC(=O)c5cccc(Cl)c5)nc4)CCC3)nc2c1 [Ex. 8, 3-chloro-N-{5-[1-(5,7-dimethyl-1H-benzimidazol-2-yl)cyclobutyl]pyridin-2-yl}benzamide] | 4.69 | 493 |
| Cc1cc2nc(C3(c4ccc(NC(=O)c5cccc(Cl)c5)nc4)CCC3)[nH]c2cc1F [Ex. 27, 3-chloro-N-{5-[1-(6-fluoro-5-methyl-1H-benzimidazol-2-yl)cyclobutyl]pyridin-2-yl}benzamide] | 3.47 | 496 |
| O=C(Nc1ccc(C2(c3nc4ccc(C(F)(F)F)cc4[nH]3)CCC2)cn1)c1cccc(Cl)c1 [Ex. 19, 3-chloro-N-(5-{1-[6-(trifluoromethyl)-1H-benzimidazol-2-yl]cyclobutyl}pyridin-2-yl)benzamide] | 2.42 | 279 |
